Test system: EGFR gene
Assay: Genomic DNA PCR assessment of large deletions in EGFR gene
Assay type: cell-based, Human
Details: gRNA alone, not paired
Description: After CRISPR reactions, genomic DNA was prepared for PCR amplification of the target region from EGFR gene. PCR-amplified DNA was then analyzed by electrophoresis through a 1% agarose gel for 75 minutes at 80v. DNA was stained with SYBR Safe. Lanes 1 and 10: NEB 2 Log Ladder; Lane 2: Scrambled gRNA; Lane 3: L858R gRNA alone; Lane 4: EGFR 21-22 SureKill gRNA 19 alone; Lane 5: EGFR 21-22 SureKill gRNA 27 alone; Lane 6: EGFR 21-22 SureKill gRNA 28+L858R gRNA; Lane 7: EGFR 21-22 SureKill gRNA 27+L858R gRNA; Lane 8: EGFR 21-22 SureKill gRNA 19+L858R gRNA; Lane 9: EGFR 21-22 SureKill gRNA 28 alone. On the left side of the image are markers indicating DNA size in bp. Expected dropout size of EGFR 21-22 SureKill gRNA 19+L858R gRNA: 316 bp. Expected dropout size of EGFR 21-22 SureKill gRNA 27+L858R gRNA: 417 bp. Expected dropout size of EGFR 21-22 SureKill gRNA 28+L858R gRNA: 463 bp. Dropout bands are indicated by asterisks.
Human lung squamous cell carcinoma NCI-H1703 clone 44-25 cells were derived from NCI-H1703 cells (#CRL-5889) which were purchased from ATCC (Manassas, VA, USA). NCI-H1703 clone 44-25 cells contains R34G mutation (C 4 G) in NFE2L2 gene. […]
Transfections were carried out using the Lonza Nuclefector 4d. […] RNPs were complexed at 250:50 pmol for 30 minutes prior to transfection, during which time cells were harvested and counted. […]

## L858R gRNA: guide RNA TCAAGATCACAGATTTTGGG, SEQ ID NO:8, targets EGFR L858R mutation (listed as DNA, chemistry not given here)
  large deletions (genomic DNA PCR): does not induce a large deletion

From US12171813B2, “Methods of and compositions for reducing gene expression and/or activity” (Christiana Care Gene Editing Institute, Inc., priority 2021, dated 2024)
